Source: patent publication US5830855A, “Lipodepsipeptides as antifungal and fungicidal agents” (priority 1996, dated 1998)
Numbered stars: 1 amine (or outer) side, 2 acyl side, 3 side chain; on linkers, the order of the positions; unused ones are H or OH. Bridge positions count the residues as written; N and C are the ends. Square brackets hold non-standard residues; d marks the D form. Peptide text beside a SMILES is read from it. * marks the point of attachment. ξ: configuration not given here. Asp(3S-OH) = N[C@H](C(=O)O)[C@H](O)C(=O)O; Thr(4-Cl) = N[C@H](C(=O)O)[C@H](O)CCl; ξAsp(3ξ-OH) = NC(C(=O)O)C(O)C(=O)O; X3 = O=C(C(N[*:1])C(O)CCl)[*:2]; X1 = CCCCCCCCC[C@@H](O)CC(=O)*; X2 = CCCCCCCCCCCC(O)CC(=O)*; dDab = NCC[C@@H](N)C(=O)O; Dab = NCC[CH](N)C(=O)O; Orn = NCCC[CH](N)C(=O)O; hSer = N[CH](CCO)C(=O)O; Dhb = C/C=C(\N)C(=O)O

Tests used:
[1] = test system: monoclonal antibody to CD3 (anti-CD3)-induced lymphocyte proliferation; test: anti-CD3-induced lymphocyte proliferation ([3H]-thymidine incorporation); format: cell-based, human
Method: (§1) Lipodepsipeptide for Immunosuppression Experiments: SR-E was purified as previously described in Bidwai, A. P., Bachmann, R. C. and Takemoto, J. Y., "Mechanism of action of Pseudomonas syringae phytotoxin syringomycin". Plant Physiol. 83:39-43 (1987). A stock solution (10 mg per ml) was prepared in RPMI1640 culture media, aliquoted and stored frozen at -20°.
(§2) Lymphocyte stimulation: Lymphocyte stimulation was performed with three different mitogens: phytohemagglutinin (PHA), pokeweed mitogen (PWM), and monoclonal antibody to CD3 (anti-CD3). […]
(§3) Mitogen-induced lymphocyte proliferation: Peripheral blood mononuclear cells (MNC) (containing lymphocytes and monocytes) were separated by Ficoll-Hypaque density-gradient centrifugation using techniques well known in the art. Mitogen-induced lymphocyte proliferation was determined as previously described in Singh, V. K., "Stimulatory effect of corticotropin-releasing neurohormone on human lymphocyte proliferation and interleukin-2 receptor expression". […]
(§4) [^3 H]-thymadine Incorporation: Cells were pulse-labeled for 4 hours with 0.5 μCi/well of [^3 H]methyl-thymidine (spec. act.=25 Ci/mmol from Amersham Intl.). […] To each vial, 2 ml of CytoScint fluid (ICN Biomedicals) was dispensed and the radioactivity determined using a liquid scintillation counter (Tri-Carb, Packard). […]

[2] = test system: pokeweed mitogen (PWM)-induced lymphocyte proliferation; test: PWM-induced lymphocyte proliferation ([3H]-thymidine incorporation); format: cell-based, human
Method: as §1, §2, §3, §4

[3] = test system: phytohemagglutinin (PHA)-induced lymphocyte proliferation; test: PHA-induced lymphocyte proliferation ([3H]-thymidine incorporation); format: cell-based, human
Method: as §1, §2, §3, §4

[4] = test system: lymphocytes (peripheral blood mononuclear cells); test: Lymphocyte proliferation in the absence of mitogens ([3H]-thymidine incorporation); format: cell-based, human; conditions: SR-E at concentrations of 5.72 μM and lower; FIG. 3
Method: as §1
Mitogen-induced lymphocyte proliferation: Peripheral blood mononuclear cells (MNC) (containing lymphocytes and monocytes) were separated by Ficoll-Hypaque density-gradient centrifugation using techniques well known in the art. Mitogen-induced lymphocyte proliferation was determined as previously described in Singh, V. K., "Stimulatory effect of corticotropin-releasing neurohormone on human lymphocyte proliferation and interleukin-2 receptor expression". J.Neuroimmunol.23.257-262 (1989). Briefly, MNC were cultured in triplicate in 96-well microtiter plates (Corning, Inc.). […]
[^3 H]-thymadine Incorporation: Cells were pulse-labeled for 4 hours with 0.5 μCi/well of [^3 H]methyl-thymidine (spec. act.=25 Ci/mmol from Amersham Intl.). […] To each vial, 2 ml of CytoScint fluid (ICN Biomedicals) was dispensed and the radioactivity determined using a liquid scintillation counter (Tri-Carb, Packard). The rate of [^3 H]-thymidine incorporation by MNC was calculated as counts per minute per 10 ^5 cells.

[5] = test system: Sheep erythrocytes; test: Erythrocyte toxicity (sheep RBC hemolysis, hemoglobin release); format: cell-based; conditions: 37° C. 1 hr, FIG. 1 and 2
Method: Erythrocyte Toxicity: Sheep red blood cell (RBC) hemolysis was used to assess erythrocyte toxicity of the CLPs and AmB. RBCs (MicroBio Products, Inc., Salt Lake City, Utah) were washed four times with phosphate-buffered-saline (PBS) by centrifugation at 800× g for 10 min and adjusted to 1×10^8 cells/ml as previously described by Chavanet, P., V. Joly, D. Rigaud, J. Bolard, C. Carbon, and P. Yeni. 1994. Influence of diet on experimental toxicity of amphotericin B deoxycholate. Antimicrob. Agents Chemother. 38(5):963-968. RBCs and a 2× concentration of SR-E, ST-B or SS-A in PBS were mixed in a 1:1 ratio and incubated at 37° C. for 1 hr. After incubation, cells were pelleted by centrifugation at 800× g for 10 min and the supernatant was collected and the absorbance at 550 nm was determined. […] Distilled water and PBS were used as lysis and hemoglobin retention controls, respectfully, as described by National Committee for Clinical Laboratory Standards. 1992. Reference method for broth dilution antifungal susceptibility testing of yeasts; proposed standard, NCCLS document M27-P (ISBN 1-56238-186-5). NCCLS, Villanova.

Row | Compound | significant inhibition of anti-CD3 response ([1]; 1.14 μM) | suppression of anti-CD3 response ([1]; 5.72 μM, p=0.02) | inhibition of PWM response ([2]; 1.14 μM) | suppression of PWM response ([2]; 5.72 μM, p=0.017) | significant inhibition of PHA response ([3]; 1.14 μM) | suppression of PHA response ([3]; 5.72 μM, p=0.026) | effect on cell proliferation in the absence of mitogens ([3H]-thymidine incorporation) [4] | erythrocyte toxicity (lysis, hemoglobin release) [5]
1 | C/C=C1\NC(=O)[C@H](Cc2ccccc2)NC(=O)[C@H](CCCN=C(N)N)NC(=O)[C@@H](CCN)NC(=O)[C@H](CCN)NC(=O)[C@@H](CO)NC(=O)[C@@H](NC(=O)C[C@H](O)CCCCCCCCC)COC(=O)[C@H]([C@H](O)CCl)NC(=O)[C@H]([C@H](O)C(=O)O)NC1=O [SR-E, Syringomycin-E] (X1-S[dS][Dab][dDab]RF[Dhb][Asp(3S-OH)][Thr(4-Cl)]; ester 1-C) | not | 30% | significantly inhibited | 60% | not | 25% | no effect | –
2 | C/C=C1\NC(=O)C(C(C)O)NC(=O)C(CCCN)NC(=O)C(CCO)NC(=O)CNC(=O)C(CCN)NC(=O)C(NC(=O)CC(O)CCCCCCCCCCC)COC(=O)C(C(O)CCl)NC(=O)C(C(O)C(=O)O)NC1=O (centres unmarked) [ST-B, Syringotoxin B] (X2-S[Dab]G[hSer][Orn]T[Dhb][ξAsp(3ξ-OH)][X3]; ester 1-C; configuration not given here) | – | – | – | – | – | – | – | least toxic of the three CLPs
